Data: PubChem BioAssay (NCI)
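Method: 48-hour compound exposure of cells in 96-well plates, five concentrations, linear interpolation of endpoints. GI50 is the concentration that inhibits growth by half. At the TGI there is no net growth.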

Key:
Assay in all cases: NCI tumour cell line growth inhibition, 48 h
[1] = test system: 786-0 renal
[2] = test system: A498 renal
[3] = test system: A549 NSCLC
[4] = test system: ACHN renal
[5] = test system: CCRF-CEM leukemia
[6] = test system: COLO 205 colon
[7] = test system: EKVX NSCLC
[8] = test system: HCC-2998 colon
[9] = test system: HCT-116 colon
[10] = test system: HCT-15 colon
[11] = test system: HL-60(TB) leukemia
[12] = test system: HOP-62 NSCLC
[13] = test system: HOP-92 NSCLC
[14] = test system: HS 578T breast
[15] = test system: HT29 colon
[16] = test system: IGROV1 ovarian
[17] = test system: K-562 leukemia
[18] = test system: LOX IMVI melanoma
[19] = test system: M14 melanoma
[20] = test system: MALME-3M melanoma
[21] = test system: MCF7 breast
[22] = test system: MDA-MB-231 breast
[23] = test system: MDA-MB-435
[24] = test system: MDA-N
[25] = test system: MOLT-4 leukemia
[26] = test system: NCI-H226 lung
[27] = test system: NCI-H23 lung
[28] = test system: NCI-H522 lung
[29] = test system: NCI/ADR-RES ovarian
[30] = test system: OVCAR-3 ovarian
[31] = test system: OVCAR-4 ovarian
[32] = test system: OVCAR-5 ovarian
[33] = test system: OVCAR-8 ovarian
[34] = test system: PC-3 prostate
[35] = test system: RPMI-8226 leukemia
[36] = test system: RXF 393 renal
[37] = test system: SF-295 CNS
[38] = test system: SF-539 CNS
[39] = test system: SK-MEL-2 melanoma
[40] = test system: SK-MEL-5 melanoma
[41] = test system: SK-OV-3 ovarian
[42] = test system: SN12C renal
[43] = test system: SR leukemia
[44] = test system: T-47D breast
[45] = test system: TK-10 renal
[46] = test system: U251 CNS
[47] = test system: UACC-257 melanoma
[48] = test system: UACC-62 melanoma
[49] = test system: UO-31 renal
[50] = test system: BT-549 breast
[51] = test system: DU-145 prostate
[52] = test system: KM12 colon
[53] = test system: NCI-H460 lung
[54] = test system: SF-268 CNS
[55] = test system: SK-MEL-28 melanoma
[56] = test system: SNB-19 CNS
[57] = test system: SNB-75 CNS
[58] = test system: SW-620 colon

## O=Cc1c2c(cc3c1CC1(C3)Cc3cc4c(c(C=O)c3C1)CCC4)CCC2
[1]
  TGI: > 100 µM
[2]
  TGI: 84.7 µM
[3]
  TGI: 87.5 µM
[4]
  TGI: 43.6 µM
[5]
  TGI: 58.4 µM
[6]
  TGI: 57.4 µM
[7]
  TGI: > 100 µM
[8]
  TGI: > 100 µM
[9]
  TGI: 33.7 µM
[10]
  TGI: > 100 µM
[11]
  TGI: 55.7 µM
[12]
  TGI: 51.4 µM
[13]
  TGI: 56.5 µM
[14]
  TGI: 80.5 µM
[15]
  TGI: > 100 µM
[16]
  TGI: > 100 µM
[17]
  TGI: 63.7 µM
[18]
  TGI: 51.1 µM
[19]
  TGI: > 100 µM
[20]
  TGI: 89.3 µM
[21]
  TGI: > 100 µM
[22]
  TGI: 70.1 µM
[23]
  TGI: > 100 µM
[24]
  TGI: > 100 µM
[25]
  TGI: 48.7 µM
[26]
  TGI: > 100 µM
[27]
  TGI: > 100 µM
[28]
  TGI: > 100 µM
[29]
  TGI: > 100 µM
[30]
  TGI: > 100 µM
[31]
  TGI: 72.1 µM
[32]
  TGI: > 100 µM
[33]
  TGI: > 100 µM
[34]
  TGI: > 100 µM
[35]
  TGI: > 100 µM
[36]
  TGI: > 100 µM
[37]
  TGI: > 100 µM
[38]
  TGI: > 100 µM
[39]
  TGI: 50.8 µM
[40]
  TGI: > 100 µM
[41]
  TGI: > 100 µM
[42]
  TGI: > 100 µM
[43]
  TGI: 73 µM
[44]
  TGI: > 100 µM
[45]
  TGI: 98.8 µM
[46]
  TGI: 38.4 µM
[47]
  TGI: > 100 µM
[48]
  TGI: 62.3 µM
[49]
  TGI: 6.38 µM

## CC(=O)c1nc(-c2ccc(C[C@@H](CNC(=O)CN(C)C)NC(=O)c3ccc(OC(C)C)c(Cl)c3)cc2)cn1C
[1]
  GI50: 0.0851 µM
  TGI: 17.1 µM
[2]
  GI50: 0.0407 µM
  TGI: 2.04 µM
[3]
  GI50: 0.0518 µM
  TGI: 19.1 µM
[4]
  GI50: 1.01 µM
  TGI: 20.2 µM
[50]
  GI50: 0.285 µM
  TGI: 19.5 µM
[5]
  GI50: 0.0447 µM
  TGI: 34.7 µM
[6]
  GI50: 0.0292 µM
  TGI: 3.84 µM
[51]
  GI50: 0.032 µM
  TGI: 11.4 µM
[7]
  GI50: 0.0455 µM
  TGI: 17.8 µM
[8]
  GI50: 0.134 µM
  TGI: 21.8 µM
[9]
  GI50: 0.0393 µM
  TGI: 13.1 µM
[10]
  GI50: 0.0899 µM
  TGI: 19.3 µM
[11]
  GI50: 0.0223 µM
  TGI: 0.0719 µM
[12]
  GI50: 0.0614 µM
  TGI: 16.9 µM
[13]
  GI50: 1.52 µM
  TGI: 13.8 µM
[14]
  GI50: 0.0615 µM
  TGI: 21.3 µM
[15]
  GI50: 0.024 µM
  TGI: 12.5 µM
[16]
  GI50: 0.896 µM
  TGI: 21.9 µM
[17]
  GI50: < 0.0196 µM
  TGI: 12.9 µM
[52]
  GI50: 0.0662 µM
  TGI: 21.1 µM
[18]
  GI50: 0.16 µM
  TGI: 16.5 µM
[19]
  GI50: 0.0317 µM
  TGI: 2.54 µM
[20]
  GI50: 0.277 µM
  TGI: 18.2 µM
[21]
  GI50: 0.0398 µM
  TGI: 14.4 µM
[22]
  GI50: 0.0535 µM
  TGI: 8.75 µM
[23]
  GI50: 0.0297 µM
  TGI: 14 µM
[25]
  GI50: 0.0406 µM
  TGI: 15 µM
[26]
  GI50: 12.6 µM
  TGI: 33.9 µM
[27]
  GI50: 0.0647 µM
  TGI: 21.1 µM
[53]
  GI50: 0.0291 µM
  TGI: 11.8 µM
[28]
  GI50: < 0.0181 µM
  TGI: 13.8 µM
[29]
  GI50: 0.511 µM
  TGI: 18.3 µM
[30]
  GI50: 0.0332 µM
  TGI: 13.3 µM
[31]
  GI50: 0.842 µM
  TGI: 22.9 µM
[32]
  GI50: 0.0618 µM
  TGI: 18.6 µM
[33]
  GI50: 0.0617 µM
  TGI: 23.4 µM
[34]
  GI50: 0.0652 µM
  TGI: 19.6 µM
[35]
  GI50: 0.0413 µM
  TGI: 23.2 µM
[36]
  GI50: 0.0628 µM
  TGI: 16.6 µM
[54]
  GI50: 0.242 µM
  TGI: 22.7 µM
[37]
  GI50: 0.0338 µM
  TGI: 7.75 µM
[38]
  GI50: 0.0341 µM
  TGI: 3.03 µM
[39]
  GI50: 0.061 µM
  TGI: 15.5 µM
[55]
  GI50: 8.01 µM
  TGI: 22.6 µM
[40]
  GI50: 0.0707 µM
  TGI: 5.51 µM
[41]
  GI50: 0.0346 µM
  TGI: 16.1 µM
[42]
  GI50: 0.0579 µM
  TGI: 17.1 µM
[56]
  GI50: 0.0439 µM
  TGI: 17.7 µM
[57]
  GI50: 0.0761 µM
  TGI: 13.9 µM
[43]
  GI50: 0.0506 µM
  TGI: 12.6 µM
[58]
  GI50: 0.0663 µM
  TGI: 20.4 µM
[44]
  GI50: 0.0538 µM
  TGI: 20.1 µM
[45]
  GI50: 12.1 µM
  TGI: 25 µM
[46]
  GI50: 0.0215 µM
  TGI: 16.7 µM
[47]
  GI50: 9.58 µM
  TGI: 24.3 µM
[48]
  GI50: 0.0587 µM
  TGI: 19.1 µM
[49]
  GI50: 0.723 µM
  TGI: 17.6 µM
